Here are results for 22 compounds from US11000491B2, “Amino-aryl-benzamide compounds and methods of use thereof” (HEPANOVA, INC., priority 2017, dated 2021).

Like-named read-outs stand apart in the source and are kept apart here.

Type in all cases: cell-based
For test [1], the system named is SREBP-1. Put plainly: SREBP-1 expression in cultured primary human hepatocytes. Conditions: procedure of Example 6, read-out: SREBP-1 mRNA inhibition (EC50). How it is done: (§1) FIG. 9. Effects of HPN-01 on the expression of SREBP-1 (master regulator of hepatic glucose metabolism and fatty acid synthesis) and SREBP-2 (master regulator of cholesterol homeostasis in cells) in cultured primary human hepatocytes.
(§2) Cultured primary human hepatocytes were treated with various concentrations of HPN-01, and the expression levels of SREBP-1 (master regulator of hepatic glucose metabolism and fatty acid synthesis) and SREBP-2 (master regulator of cholesterol homeostasis in cells) were subsequently determined.
(§3) The ability of each HPN-01 derivative obtained from the synthesis methods described above, to inhibit SREBP-1 and SREBP-2 mRNA expression in primary hepatocytes, was tested using the procedure outlined in Example 6. The results of this analysis are shown in Table 6 (third and fourth columns).

Test [2] relates to SREBP-2. Put plainly: SREBP-2 expression in cultured primary human hepatocytes. The note with it: procedure of Example 6, read-out: SREBP-2 mRNA inhibition (EC50). Here is the method: as §1, §2, §3
Test [3] relates to Huh7 cells. Put plainly: LD content in Huh7 cells pre-treated with insulin, Oil-Red-O staining, absorbance OD 540 nm. Conditions: procedure of Example 3, read-out: LD content inhibition (EC50). Here is the method: FIG. 6. […] Spectrophotometric absorbance of untreated or HPN-01-treated Huh7 cells pre-incubated with 1 mM insulin is shown. LD contents were stained using Oil Red O, and measured by determining spectrophotometer absorbance under OD 540 nm.
Huh7 cells were mock treated or pre-treated with 1 mM insulin, and subsequently treated with indicated amounted of HPN-01.
The ability of each HPN-01 derivative obtained from the synthesis methods described above, to inhibit LD formation in hepatocytes, was tested using the procedure outlined in Example 3. The results of this analysis are shown below in Table 6 (second column).

The mark [4] stands for this setting: Homo sapiens, Huh-7, Huh7 cells.

For the compound `COc1cccc(NC(=O)c2cc(-c3ccc(Cl)cc3)cc(-c3ccc(S(N)(=O)=O)cc3)c2N)c1` [HPN-01619, 4′-amino-4-chloro-N-(3-methoxyphenyl)-4″-sulfamoyl-[1, 1′:3′,1″-terphenyl]-5′-carboxamide], the EC50 was 4.18 µM in test [1] (Homo sapiens, Hepatocyte); 7.95 µM in test [2] (Homo sapiens, Hepatocyte); 1.33 µM in test [3] (setting [4]).
On to `NC(=O)c1cc(/C=C/c2ccc(Cl)cc2)cc(-c2ccc(S(N)(=O)=O)cc2)c1N` [HPN-01107, (E)-2-amino-5-(4-chlorostyryl)-4′-sulfamoyl-[1,1′-biphenyl]-3-carboxamide], for which the EC50 turned out to be 5.66 µM in test [1] (Homo sapiens, Hepatocyte); 7.37 µM in test [2] (Homo sapiens, Hepatocyte); 1.17 µM in test [3] (setting [4]).
As to `NC(=O)c1cc(/C=C/C(=O)Nc2ccc(C(=O)O)cc2)cc(-c2ccc(S(N)(=O)=O)cc2)c1N` [HPN-01121, (E)-4-(3-(6-amino-5-carbamoyl-4′-sulfamoyl-[1,1′-biphenyl]-3-yl)acrylamido)benzoic acid], the EC50 in test [1] (Homo sapiens, Hepatocyte) came to 6.59 µM; in test [2] (Homo sapiens, Hepatocyte), 8.04 µM; in test [3] (setting [4]) it was 2.14 µM.
For `CCCCCCCOC(=O)/C=C/c1cc(C(N)=O)c(N)c(-c2ccc(S(N)(=O)=O)cc2)c1` [HPN-01118, heptyl (E)-3-(6-amino-5-carbamoyl-4′-sulfamoyl-[1,1′-biphenyl]-3-yl)acrylate] the same measures were 2.34 µM, 2.51 µM and 0.84 µM.
Consider `NC(=O)c1cc(-c2ccc(Cl)cc2)cc(-c2ccc(NC(=O)Nc3cccnc3)cc2)c1N` [HPN-01429, 4′-amino-4-chloro-4″-(3-(pyridin-3-yl)ureido)-[1,1′:3′,1″-terphenyl]-5′-carboxamide], for which the EC50 turned out to be 6.69 µM in test [1] (Homo sapiens, Hepatocyte); 3.98 µM in test [2] (Homo sapiens, Hepatocyte); 0.14 µM in test [3] (setting [4]).
The like results for `NCCC(=O)Oc1c(C(N)=O)cc(-c2ccc(Br)cc2)cc1-c1ccc(NC(N)=O)cc1` [HPN-01526, 4-bromo-5′-carbamoyl-4″-ureido-[1,1′:3′,1″-terphenyl]-4′-yl 3-aminopropanoate] were, in that order, 1.63 µM, 3.83 µM and 1.15 µM.
For the compound “4′-(2-aminoacetamido)-4-chloro-4″-ureido-[1, 1′:3′,1″-terphenyl]-5′-carboxamide [HPN-01518]”, the values for the EC50 in test [1], in test [2] and in test [3] (Huh7 cells) were 2.92 µM, 4.86 µM and 1.11 µM, respectively.
Regarding `Cc1cccc(NC(=O)/C=C/c2cc(C(N)=O)c(N)c(-c3ccc(S(N)(=O)=O)cc3)c2)c1` [HPN-01127, (E)-2-amino-5-(3-oxo-3-(m-tolylamino)prop-1-en-1-yl)-4═-sulfamoyl-[1,1′-biphenyl]-3-carboxamide], the EC50 was 1.17 µM in test [1], 3.37 µM in test [2] and 0.33 µM in test [3] (Huh7 cells).
Regarding `NC(=O)c1cc(C#CCOC(=O)c2ccccn2)cc(-c2ccc(S(N)(=O)=O)cc2)c1N` [HPN-01221, 3-(6-amino-5-carbamoyl-4′-sulfamoyl-[1,1′-biphenyl]-3-yl)prop-2-yn-1-yl picolinate], the EC50 came to 1.67 µM in test [1] (Homo sapiens, Hepatocyte); 3.47 µM in test [2] (Homo sapiens, Hepatocyte); 0.77 µM in test [3] (setting [4]).
Regarding `Cc1cccc(C(=O)OCC#Cc2cc(C(N)=O)c(N)c(-c3ccc(S(N)(=O)=O)cc3)c2)c1` [HPN-01215, 3-(6-amino-5-carbamoyl-4′-sulfamoyl-[1,1′-biphenyl]-3-yl)prop-2-yn-1-yl 3-methylbenzoate], the EC50 in test [1] (Homo sapiens, Hepatocyte) came out at 3.72 µM; in test [2] (Homo sapiens, Hepatocyte) it was 6.78 µM; in test [3] (setting [4]), 0.61 µM.
For `NC(=O)c1cc(-c2c[nH]c(Cl)c2)cc(-c2ccc(S(N)(=O)=O)cc2)c1N` [HPN-01310, 2-amino-5-(5-chloro-1H-pyrrol-3-yl)-4′-sulfamoyl-[1,1′-biphenyl]-3-carboxamide], the EC50 in test [1] (Homo sapiens, Hepatocyte) was 13 µM; in test [2] (Homo sapiens, Hepatocyte), 23.9 µM; in test [3] (setting [4]) it was 10.5 µM.
On to `NC(=O)c1cc(Nc2cccc(Cl)c2)cc(-c2ccc(S(N)(=O)=O)cc2)c1N` [HPN-01315, 2-amino-5-((3-chlorophenyl)amino)-4′-sulfamoyl-[1,1′-biphenyl]-3-carboxamide], for which the EC50 in test [1] (Homo sapiens, Hepatocyte) was found to be 7.72 µM; in test [2] (Homo sapiens, Hepatocyte), 14 µM; in test [3] (setting [4]) it was 2.61 µM.
For the compound `NC(=O)c1cc(C#CCOC(=O)c2ccccc2Br)cc(-c2ccc(S(N)(=O)=O)cc2)c1N` [HPN-01211, 3-(6-amino-5-carbamoyl-4′-sulfamoyl-[1,1′-biphenyl]-3-yl)prop-2-yn-1-yl 2-bromobenzoate], the EC50 turned out to be 3.79 µM in test [1] (Homo sapiens, Hepatocyte); 7.14 µM in test [2] (Homo sapiens, Hepatocyte); 0.78 µM in test [3] (setting [4]).
Consider “4′-butyramido-4-chloro-4″-sulfamoyl-[1,1′:3′,1″-terphenyl]-5′-carboxamide [HPN-01515]”, for which the EC50 in test [1] worked out at 0.95 µM; in test [2], 1.32 µM; in test [3] (Huh7 cells), 0.48 µM.
In the case of `COc1cccc(NC(=O)c2cc(-c3ccc(Br)cc3)cc(-c3ccc(S(N)(=O)=O)cc3)c2N)c1` [HPN-01620, 4′-amino-4-bromo-N-(3-methoxyphenyl)-4″-sulfamoyl-[1,1′:3′,1″-terphenyl]-5′-carboxamide], the EC50 in test [1] (Homo sapiens, Hepatocyte) came out at 5.76 µM; in test [2] (Homo sapiens, Hepatocyte), 9.22 µM; in test [3] (setting [4]), 5.36 µM.
For `NC(=O)c1cc(-c2ccc(Cl)cc2)cc(NCc2ccc(S(N)(=O)=O)cc2)c1N` [HPN-01426, 4-amino-4′-chloro-5-((4-sulfamoylbenzyl)amino)-[1,1′-biphenyl]-3-carboxamide], the EC50 in test [1] (Homo sapiens, Hepatocyte) was 11 µM; in test [2] (Homo sapiens, Hepatocyte), 9.4 µM; in test [3] (setting [4]) it was 1.15 µM.
Take `CCCC(=O)Nc1ccc(-c2cc(-c3ccc(Cl)cc3)cc(C(N)=O)c2N)cc1` [HPN-01409, 4′-amino-4″-butyramido-4-chloro-[1,1′:3′,1″-terphenyl]-5′-carboxamide]: the EC50 in test [1] (Homo sapiens, Hepatocyte) came to 1.05 µM; in test [2] (Homo sapiens, Hepatocyte), 1.42 µM; in test [3] (setting [4]), 0.5 µM.
Regarding `NC(=O)c1cc(Oc2ccc(Cl)cc2)cc(-c2ccc(S(N)(=O)=O)cc2)c1N` [HPN-01313, 2-amino-5-(4-chlorophenoxy)-4′-sulfamoyl-[1,1′-biphenyl]-3-carboxamide], the EC50 in test [1] (Homo sapiens, Hepatocyte) was found to be 5.51 µM; in test [2] (Homo sapiens, Hepatocyte) it was 9.41 µM; in test [3] (setting [4]), 1.76 µM.
Regarding `Nc1c(C(=O)NCCO)cc(-c2ccc(Cl)cc2)cc1-c1ccc(S(N)(=O)=O)cc1` [HPN-01607, 4′-amino-4-chloro-N-(2-hydroxyethyl)-4″-sulfamoyl-[1,1′:3′,1″-terphenyl]-5′-carboxamide], the EC50 in test [1] (Homo sapiens, Hepatocyte) is 6.73 µM; in test [2] (Homo sapiens, Hepatocyte), 12.5 µM; in test [3] (setting [4]) it was 3.05 µM.
Regarding `NC(=O)c1cc(-c2ccc(Cl)cc2)cc(-c2ccc(S(N)(=O)=O)cc2)c1NC(=O)c1cccnc1` [HPN-01529, N-(5′-carbamoyl-4-chloro-4″-sulfamoyl-[1,1′:3′,1″-terphenyl]-4′-yl)nicotinamide], the EC50 was determined as 3.09 µM in test [1] (Homo sapiens, Hepatocyte); 18.8 µM in test [2] (Homo sapiens, Hepatocyte); 1.67 µM in test [3] (setting [4]).
Take `NC(=O)c1cc(Nc2cccc(C(=O)O)c2)cc(-c2ccc(S(N)(=O)=O)cc2)c1N` [HPN-01317, 3-((6-amino-5-carbamoyl-4′-sulfamoyl-[1,1′-biphenyl]-3-yl)amino)benzoic acid]: the concentration for a half-maximal effect (EC50) was 3.35 µM in test [1] (Homo sapiens, Hepatocyte); 4.32 µM in test [2] (Homo sapiens, Hepatocyte); 0.58 µM in test [3] (setting [4]).
`NC(=O)c1cc(-c2ccc(Cl)cc2)cc(-c2ccc(S(N)(=O)=O)cc2)c1NC(=O)CCO` [HPN-01516, 4-chloro-4′-(3-hydroxypropanamido)-4″-sulfamoyl-[1, 1′:3′,1″-terphenyl]-5′-carboxamide]: the EC50 is 1.91 µM in test [1] (Homo sapiens, Hepatocyte); 2.07 µM in test [2] (Homo sapiens, Hepatocyte); 1.1 µM in test [3] (setting [4]).
